We go through two compounds from doi:10.1101/2025.08.13.670122v1 (bioRxiv, 2025).

The data set can be described thus: Plasma stability. The class given is in vitro ADME. Conditions: male Sprague-Dawley rat plasma, 6 μL of 1 mM compound (10% DMSO) in 27 μL plasma, 37°C, 0-24 h, UPLC-MS, one-phase decay, mean ± SEM of at least three experiments, read-out: Plasmatic half-life t1/2 (±SEM). The protocol:
The degradation was quenched by adding 140 μL of 1% formic acid in an acetonitrile-ethanol (1:1) solution containing 0.25 mM of N,N-dimethylbenzamide (used as an internal standard). This mixture was initially transferred to an Impact Protein Precipitation filter plate (Phenomenex, California), the filtrates from which were subsequently collected in a second 96-well UPLC plate. Both plates were centrifuged at 500 g for 10 min while maintaining a temperature of 4°C. The filtrates were then diluted with 30 μL of distilled water and processed for analysis using an Acquity UPLC-MS system class H (using an Acquity UPLC protein BEH C18 column that measured 2.1 mm × 50 mm and had 1.7 μm particles with pores 130 Å in width). The peptide half-life, derived from the degradation curve, was calculated using the exponential one-phase decay function in GraphPad Prism 9. Degradation was estimated by comparing the mass spectrum at each point with those at the zero-minute mark. The data were presented as a mean ± SEM of at least three unique experiments, each performed in singlicate.

SMILES strings stand for the structures.

As for `CC[C@H](C)[C@H](NC(=O)[C@H](Cc1ccc(O)cc1)NC(=O)[C@@H](NC(=O)[C@H](CCCNC(=N)N)NC(=O)[C@@H](N)CC(=O)O)C(C)C)C(=O)N[C@@H](Cc1c[nH]cn1)C(=O)N1CCC[C@H]1C(=O)N[C@@H](Cc1ccc(OC)cc1)C(=O)O` [compound 11], the half-life at 182 µM was 33 ± 4 min.

Take `CC[C@H](C)[C@H](NC(=O)[C@H](Cc1ccc(O)cc1)NC(=O)[C@@H](NC(=O)[C@H](CCCNC(=N)N)NC(=O)[C@@H](N)CC(=O)O)C(C)C)C(=O)N[C@@H](Cc1c[nH]cn1)C(=O)N1CCC[C@H]1C(=O)N[C@@H](Cc1ccc(OCc2ccccc2)cc1)C(=O)O` [compound 12]: the half-life at 182 µM came to 32 ± 3 min.
